Test results reported in PubChem BioAssay (NCI).
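Each compound was tested at five concentrations against cells in 96-well plates for 48 hours. GI50 is the concentration that inhibits growth by half. TGI marks complete inhibition of growth.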

Columns and labels:
Test in all cases: NCI anticancer screen, dose series, 48 h
NCI-H226 lung = tested on: NCI-H226 lung
786-0 renal = tested on: 786-0 renal
UACC-62 melanoma = tested on: UACC-62 melanoma
COLO 205 colon = tested on: COLO 205 colon
HOP-62 NSCLC = tested on: HOP-62 NSCLC
SNB-19 CNS = tested on: SNB-19 CNS
MDA-MB-435 = tested on: MDA-MB-435
SF-539 CNS = tested on: SF-539 CNS
MALME-3M melanoma = tested on: MALME-3M melanoma
CCRF-CEM leukemia = tested on: CCRF-CEM leukemia

Row | Compound | TGI (NCI-H226 lung) | TGI (786-0 renal) | TGI (UACC-62 melanoma) | TGI (COLO 205 colon) | TGI (HOP-62 NSCLC) | TGI (SNB-19 CNS) | TGI (MDA-MB-435) | TGI (SF-539 CNS) | TGI (MALME-3M melanoma) | TGI (CCRF-CEM leukemia) | GI50 (NCI-H226 lung) | GI50 (786-0 renal) | GI50 (UACC-62 melanoma) | GI50 (COLO 205 colon) | GI50 (HOP-62 NSCLC) | GI50 (SNB-19 CNS) | GI50 (MDA-MB-435) | GI50 (SF-539 CNS) | GI50 (MALME-3M melanoma) | GI50 (CCRF-CEM leukemia)
1 | O=C(O)c1ccc2c(c1C(=O)O)C(=O)OC2(c1ccc(O)cc1)c1ccc(O)cc1 | > 100 µM | > 100 µM | > 100 µM | > 100 µM | > 100 µM | > 100 µM | > 100 µM | > 100 µM | > 100 µM | > 100 µM | – | – | – | – | – | – | – | – | – | –
2 | CCCOc1cc2ccccc2cc1C(=O)Nc1nc(N)c2c(ccc3nccc32)[nH]1 | 3.32 µM | 1.56 µM | 1.96 µM | 0.481 µM | 2.69 µM | 2.08 µM | 0.0432 µM | 1.04 µM | 2.62 µM | 1.49 µM | 1.31 µM | 0.0509 µM | 0.0403 µM | 0.0445 µM | 0.0798 µM | 0.0655 µM | 0.0133 µM | 0.0538 µM | 1.13 µM | 0.042 µM
3 | CCN1C(=O)N(c2ccccc2)C2NC(=S)N(/N=C/C=C/c3ccccc3OC)C21 (stereo not drawn) | > 40 µM | > 68.8 µM | > 100 µM | 0.487 µM | > 58.5 µM | > 52.9 µM | 0.155 µM | 0.744 µM | > 100 µM | > 38.5 µM | 0.3 µM | 0.182 µM | 0.0698 µM | 0.21 µM | 0.127 µM | 0.133 µM | 0.0356 µM | 0.199 µM | 0.722 µM | 0.111 µM
4 | Cn1ccc2c3c(Oc4ccc(NC(N)=O)cc4)ccnc3ccc21 | > 100 µM | > 100 µM | > 100 µM | > 100 µM | > 100 µM | > 100 µM | > 100 µM | > 100 µM | > 100 µM | – | > 100 µM | > 100 µM | > 100 µM | > 100 µM | > 100 µM | > 100 µM | > 100 µM | > 100 µM | > 100 µM | –
5 | Nc1c(C(=O)Nc2cccc(C(F)(F)F)c2)sc2nc3c(cc12)CCCCC3 | 16 µM | 3.13 µM | 16.7 µM | > 100 µM | – | 19.8 µM | 63.1 µM | 4.48 µM | 9.49 µM | > 100 µM | 1.57 µM | 1.58 µM | 2.69 µM | 11.7 µM | – | 4.24 µM | 2.53 µM | 1.94 µM | 3 µM | 5.56 µM
6 | CCOC(=O)C1=C(C)N(c2ccc(F)cc2F)[C@]2(C#N)C(O)=C(Cl)C(Cl)=C(O)[C@]12C#N | > 100 µM | > 100 µM | – | > 100 µM | > 100 µM | > 100 µM | > 100 µM | > 100 µM | > 100 µM | > 100 µM | > 100 µM | > 100 µM | – | > 100 µM | > 100 µM | > 100 µM | > 100 µM | > 100 µM | > 100 µM | 28.8 µM
7 | COc1ccc2nc3cc(Cl)ccc3c(NCCNCC(C)O)c2c1 (stereo not drawn) | 6.04 µM | 5.83 µM | 4.31 µM | 2.79 µM | 4.09 µM | 9.78 µM | 3.1 µM | 3.51 µM | 3.68 µM | 8.66 µM | 2.3 µM | 1.68 µM | 2.01 µM | 1.11 µM | 1.31 µM | 2.19 µM | 1.51 µM | 1.65 µM | 1.82 µM | 2.46 µM
8 | Nc1n[nH]c2cccc(C#Cc3cccc(C(=O)Nc4ccc(CN5CCOCC5)c(C(F)(F)F)c4)c3)c12 | 7.81 µM | 7.74 µM | 3.52 µM | 6.99 µM | 10.1 µM | 35.5 µM | 10.5 µM | 3.47 µM | 2.69 µM | 11.5 µM | 1.14 µM | 2.79 µM | 1.12 µM | 1.35 µM | 2.88 µM | 3.36 µM | 2.22 µM | 1.05 µM | 0.446 µM | 2.26 µM
9 | COc1ccc(CCN=C2NC(=O)/C(=C/c3ccc4ncccc4c3)S2)cc1 | > 25 µM | > 25 µM | > 25 µM | > 25 µM | > 25 µM | > 25 µM | > 25 µM | > 25 µM | > 25 µM | > 25 µM | > 25 µM | > 25 µM | > 25 µM | > 25 µM | > 25 µM | > 25 µM | > 25 µM | > 25 µM | > 25 µM | > 25 µM
10 | O=S(=O)(c1ccccc1)N1CCN(S(=O)(=O)c2ccccc2)c2ccccc21 | > 100 µM | > 100 µM | > 100 µM | > 100 µM | > 100 µM | > 100 µM | > 100 µM | > 100 µM | > 100 µM | – | – | – | – | – | – | – | – | – | – | –
11 | CC(C)[C@@H]1C=C2CC[C@H]3[C@](C)(CN)CCC[C@]3(C)[C@H]2CC1 | 34.4 µM | 4.1 µM | 30.5 µM | 3.17 µM | 10.9 µM | 21.1 µM | 4.2 µM | 13 µM | 19.3 µM | 13.8 µM | 15.2 µM | 2.02 µM | 16 µM | 1.7 µM | 3.33 µM | 8.17 µM | 1.98 µM | 3.44 µM | 3.9 µM | 3.39 µM
12 | Nc1n[nH]c2cc(F)c([C@@H]3Nc4ccc5[nH]ncc5c4[C@H]4C5CCC(C5)[C@@H]34)cc12 (stereo partly drawn) | 3.38 µM | 12 µM | 10 µM | 0.527 µM | 9.12 µM | > 35 µM | 0.306 µM | 0.322 µM | 28.3 µM | > 50 µM | 0.192 µM | 0.25 µM | 0.218 µM | 0.162 µM | 0.222 µM | 1.03 µM | 0.0854 µM | 0.115 µM | 1.47 µM | 0.176 µM
13 | C=C1C(=O)O[C@H]2[C@H]1CC/C(COC(=O)NCc1ccc(Cn3c(=O)sn(-c4ccc(OC)cc4)c3=O)cc1)=C\CC[C@@]1(C)O[C@@H]21 | 30.7 µM | 4.51 µM | 3.84 µM | 3.38 µM | 26.9 µM | 24.6 µM | 3.84 µM | 4.15 µM | 3.76 µM | 3.05 µM | 12.9 µM | 2.05 µM | 1.86 µM | 1.85 µM | 13.2 µM | 11.7 µM | 1.83 µM | 1.96 µM | 1.81 µM | 0.561 µM
